Measurements: patent USRE43802E1, “α- and β-amino acid hydroxyethylamino sulfonamides useful as retroviral protease inhibitors” (G.D. Searle LLC, priority 1992, dated 2012)
Read-outs that look alike come from different tables or passages of the source.

Biological target: T1, HIV protease (Human immunodeficiency virus type 1 group M subtype B, UniProt P04585)
T1 construct: HIV protease is diluted in the assay buffer to a final enzyme concentration of 12.3 nanomolar, based on a molecular weight of 10,780
Experiment: HIV protease enzyme assay (fluorescence, substrate 2-Ile-Nle-Phe(p-NO2)-Gln-ArgNH2)
Format: biochemical
Details: for IC50: HIV protease enzyme assay
Experimental: The enzyme method is described below. […] The positive control is MVT-101 (Miller, M. et al, Science, 246, 1149 (1989)] The assay conditions are as follows:
Assay buffer: 20 mM sodium phosphate, pH 6.4 20% glycerol 1 mM EDTA 1 mM DTT 0.1% CHAPS
The above described substrate is dissolved in DMSO, then diluted 10 fold in assay buffer. Final substrate concentration in the assay is 80 μM.
The final concentration of DMSO is 14% and the final concentration of glycerol is 18%. The test compound is dissolved in DMSO and diluted in DMSO to 10× the test concentration; 10 μl of the enzyme preparation is added, the materials mixed and then the mixture is incubated at ambient temperature for 15 minutes. The enzyme reaction is initiated by the addition of 40 μl of substrate. The increase in fluorescence is monitored at 4 time points (0, 8, 16 and 24 minutes) at ambient temperature. Each assay is carried out in duplicate wells.

[1] = Table 20, read-out: IC50 (uM) or % inhibition: IC50
[2] = Table 19B, read-out: IC50 (uM) or % inhib: IC50

SMILES | IC50 (Table 21, read-out: IC50) [µM] | other results
COc1ccc(S(=O)(=O)N(CC(C)C)C[C@@H](O)[C@H](Cc2ccccc2)NC(=O)OCc2ccc(O)nc2)cc1 [Example 39] | 0.016 | 
COc1ccc(S(=O)(=O)N(CC(C)C)C[C@@H](O)[C@H](Cc2ccccc2)NC(=O)C2CCCCC2)cc1 [Example 35] | 0.018 | 
CC(C)CCN(C[C@@H](O)[C@H](Cc1ccccc1)NC(=O)[C@@H](NC(=O)CN(C)C)C(C)(C)C)S(=O)(=O)c1ccccc1 [Entry 9] |  | IC50 (Table 18A, read-out: IC50): 0.0035 µM
COc1ccc(S(=O)(=O)N(CC(C)C)CC(O)C(Cc2ccccc2)NC(=O)c2cccc(S(C)(=O)=O)c2)cc1 (centres unmarked) [Table 5A Entry 18] |  | IC50 [1]: 0.13 µM
COc1ccc(S(=O)(=O)N(CC(C)C)C[C@@H](O)[C@H](Cc2ccccc2)NC(=O)c2ccc([N+](=O)[O-])cc2C)cc1 [Example 50] | 0.014 | 
CC(C)CN(C[C@@H](O)[C@H](Cc1ccccc1)NC(=O)OCc1ccoc1)S(=O)(=O)c1ccc(N)cc1 [Example 60] | 0.005 | 
CC(C)CN(C[C@@H](O)[C@H](Cc1ccccc1)NC(=O)OCc1cccnc1)S(=O)(=O)c1ccc(Cl)cc1 [Example 18] | 0.004 | 
COc1ccc(S(=O)(=O)N(CC(C)C)CC(O)C(Cc2ccccc2)NC(=O)c2ccc(CS(C)(=O)=O)cc2)cc1 (centres unmarked) [Table 5A Entry 22] |  | IC50 (uM) or % inhibition: % inhibition @ 1 μM (Table 20, @ 1 μM): 63% @ 1 μM
COc1ccc(S(=O)(=O)N(CC(C)C)C[C@@H](O)[C@H](Cc2ccccc2)NC(=O)c2cccc([N+](=O)[O-])c2C)cc1 [Example 48] | 0.017 | 
CCC(C)C(NC(=O)OCc1ccccc1)C(=O)N[C@@H](Cc1ccccc1)[C@H](O)CN(CCC(C)C)S(=O)(=O)c1ccccc1 (some centres unmarked) [Table 3 Entry 4] |  | IC50 [2]: 0.0024 µM
CC(C)CN(C[C@@H](O)[C@H](Cc1ccccc1)NC(=O)OCc1cncs1)S(=O)(=O)c1ccc2c(c1)CCO2 [Example 67] | 0.005 | 
CC(C)CCN(C[C@@H](O)[C@H](Cc1ccccc1)NC(=O)OCc1ccccc1)S(=O)(=O)CCl [Table 1a Entry 52] |  | IC50 (uM) or % inhib: % inhib @ 1 uM (Table 19B): 39%; IC50 (uM) or % inhib: % inhib @ 10 uM (Table 19B): 81%
CC(C)CCN(C[C@@H](O)[C@H](Cc1ccccc1)NC(=O)[C@H](Cc1c[nH]cn1)NC(=O)OCc1ccccc1)S(=O)(=O)c1ccccc1 [Entry 8] |  | IC50 (Table 18A, read-out: IC50): 0.0042 µM
COCCCN(C[C@@H](O)[C@H](Cc1ccccc1)NC(=O)OCc1ccccc1)S(=O)(=O)c1ccccc1 [Entry 9] | 0.053 | 
COc1ccc(S(=O)(=O)N(CC(C)C)C[C@@H](O)[C@H](Cc2ccccc2)NC(=O)OCc2ccccn2)cc1 [Example 21] | 0.073 | 
CCCN(C[C@@H](O)[C@H](Cc1ccccc1)NC(=O)[C@H](CC(N)=O)NC(=O)OCc1ccccc1)S(=O)(=O)c1ccccc1 [Entry 7] |  | IC50 (Table 18A, read-out: IC50): 0.0036 µM
CC(C)CCN(C[C@@H](O)[C@H](Cc1ccccc1)NC(=O)[C@@H](NC(=O)OCc1ccccc1)C(C)(C)C)S(=O)(=O)c1ccccc1 [Table 5 Entry 22] |  | IC50 [2]: 0.0018 µM
COc1ccc(S(=O)(=O)N(CC(C)C)C[C@@H](O)[C@H](Cc2ccccc2)NC(=O)c2ccc3nc(N)sc3c2)cc1 [Example 76] | 0.005 | 
CC(C)CN(C[C@@H](O)[C@H](Cc1ccccc1)NC(=O)OCc1cccnc1)S(=O)(=O)c1ccc([N+](=O)[O-])cc1 [Example 19] | 0.008 | 
CC(C)CN(C[C@@H](O)[C@H](Cc1ccccc1)NC(=O)OCc1cncs1)S(=O)(=O)c1cccc(N)c1 [Example 64] | 0.007 | 
CC(C)CN(C[C@@H](O)[C@H](Cc1ccccc1)NC(=O)OCc1ccc(N)nc1)S(=O)(=O)c1ccc(O)cc1 [Example 40] | 0.003 | 
COc1ccc(S(=O)(=O)N(CC(C)C)CC(O)C(Cc2ccccc2)NC(=O)C2CCCC2)cc1 (centres unmarked) [Table 5A Entry 1] |  | IC50 [1]: 0.04 µM
CC(C)CCN(C[C@@H](O)[C@H](Cc1ccccc1)NC(=O)[C@H](Cc1cnc[nH]1)NC(=O)c1ccc2ccccc2n1)S(=O)(=O)c1ccccc1 [Entry 12] |  | IC50 (IC50 (nM), Table 21): 0.002 µM

SMILES | IC50 (Table 21, read-out: IC50) [µM] | other results
COc1ccc(S(=O)(=O)N(CC(C)C)C[C@@H](O)[C@H](Cc2ccccc2)NC(=O)c2cc(N(C)C)ccc2C)cc1 [Example 55] | 0.037 | 
CCOc1ccc(S(=O)(=O)N(CC(C)C)C[C@@H](O)[C@H](Cc2ccccc2)NC(=O)OCc2ccccc2)cc1 [Entry 12] |  | IC50 (Table 18A, read-out: IC50): 0.02 µM
CC(C)CCN(C[C@@H](O)[C@H](Cc1ccccc1)NC(=O)[C@@H](NC(=O)OCc1ccccc1)C(C)C)S(=O)(=O)c1ccccc1 [Table 5 Entry 1] |  | IC50 [2]: 0.0014 µM
CC(C)CCN(C[C@@H](O)[C@H](Cc1ccccc1)NC(=O)OCc1ccccc1)S(=O)(=O)c1ccc([N+](=O)[O-])cc1 [Entry 6] |  | IC50 (Table 18A, read-out: IC50): 0.01 µM
CC(C)CN(C[C@@H](O)[C@H](Cc1ccccc1)NC(=O)OCc1ccccc1)S(=O)(=O)C=Cc1ccccc1 [Table 1a Entry 53] |  | IC50 [2]: 0.049 µM
CC(C)CCN(C[C@@H](O)[C@H](Cc1ccccc1)NC(=O)[C@@H](NC(=O)CN(C)C)C(C)(C)C)S(=O)(=O)c1ccccc1 [Entry 11] |  | IC50 (IC50 (nM), Table 21): 0.003 µM
CC(C)CN(C[C@@H](O)[C@H](Cc1ccccc1)NC(=O)O[C@H]1CCSC1)S(=O)(=O)c1ccc(O)cc1 [Example 42] | 0.002 | 
COc1ccc(S(=O)(=O)N(CC(C)C)CC(O)C(Cc2ccccc2)NC(=O)c2ccc(S(C)(=O)=O)cc2)cc1 (centres unmarked) [Table 5A Entry 19] |  | IC50 [1]: 0.092 µM
COc1ccc(S(=O)(=O)N(CC(C)C)C[C@@H](O)[C@H](Cc2ccccc2)NC(=O)O[C@H]2CCS(=O)(=O)C2)cc1 [Example 47] | 0.003 | 
CC(C)CN(C[C@@H](O)[C@H](Cc1ccccc1)NC(=O)COc1ccccc1)S(=O)(=O)c1ccc2ncsc2c1 [Example 78] | 0.003 | 
CCCS(=O)(=O)N(CCC(C)C)C[C@@H](O)[C@H](Cc1ccccc1)NC(=O)OCc1ccccc1 [Table 1a Entry 40] |  | IC50 [2]: 0.21 µM
COc1ccc(S(=O)(=O)N(CC(C)C)C[C@@H](O)[C@H](Cc2ccccc2)NC(=O)OCc2ccoc2)cc1 [Example 58] | 0.002 | 
CC(C)CN(C[C@@H](O)[C@H](Cc1ccccc1)NC(=O)OCc1cccnc1)S(=O)(=O)c1ccc(O)cc1 [Example 20] | 0.004 | 
CC(C)CN(C[C@@H](O)[C@H](Cc1ccccc1)NC(=O)OCc1cccnc1)S(=O)(=O)c1ccc2c(c1)CCO2 [Example 66] | 0.004 | 
CCc1ccccc1C(=O)NC(Cc1ccccc1)C(O)CN(CC(C)C)S(=O)(=O)c1ccc(OC)cc1 (centres unmarked) [Table 5A Entry 13] |  | IC50 [1]: 0.0098 µM
COc1ccc(S(=O)(=O)N(CC(C)C)C[C@@H](O)[C@H](Cc2ccccc2)NC(=O)O[C@H]2CCOC2)cc1 [Example 44] | 0.004 | 
COc1ccc(S(=O)(=O)N(CC(C)C)C[C@@H](O)[C@H](Cc2ccccc2)NC(=O)c2cc([N+](=O)[O-])ccc2C)cc1 [Example 53] | 0.021 | 
CC(C)CCN(C[C@@H](O)[C@H](Cc1ccccc1)NC(=O)[C@H](CC(N)=O)NC(=O)OCc1ccccc1)S(=O)(=O)c1ccccc1 [Table 5 Entry 14] |  | IC50 [2]: 0.0022 µM
CC(C)CN(C[C@@H](O)[C@H](Cc1ccccc1)NC(=O)OCc1cccnc1)S(=O)(=O)c1ccc2c(c1)OCO2 [Example 69] | 0.004 | 
Cc1c(O)cccc1C(=O)N[C@@H](Cc1ccccc1)[C@H](O)CN(CC(C)C)S(=O)(=O)c1cccc(N)c1 [Example 65] | 0.004 | 
CC(C)CN(C[C@@H](O)[C@H](Cc1ccccc1)NC(=O)O[C@H]1CCS(=O)(=O)C1)S(=O)(=O)c1ccc(O)cc1 [Example 43] | 0.004 | 
CC(C)CCN(C[C@@H](O)[C@H](Cc1ccccc1)NC(=O)OCc1ccccc1)S(=O)(=O)C(F)(F)F [Table 1a Entry 50] |  | IC50 (uM) or % inhib: % inhib @ 1 uM (Table 19B): 42%; IC50 (uM) or % inhib: % inhib @ 10 uM (Table 19B): 89%
